The target in this test is human Cereblon WT GST-tagged protein (Homo sapiens (Human), UniProt Q96SW2). Put plainly: CRBN-binding affinity, HTRF (CEREBLON BINDING kit). As to the method:
The CEREBLON BINDING kits (specification: 10,000 tests; product number: Catalog #64BDCRBNPEH; CISBIO company) was used to determine the CRBN binding ability of the compounds to be tested through a HTRF method (homogeneous time-resolved fluorescence). The specific methods are as follows: • 1. […] Then, 2.5 μL of human Cereblon WT GST-tagged protein solution was added to each well. Finally, 5 μL of the thoroughly mixed Thalidomide-Re reagent and GST Eu antibody working solution were added to each of the aforementioned wells. […] The blank control wells were sequentially added with 2.5 μL of diluent #9 (1×) solution, 2.5 μL of PROTAC binding buffer, and 5 μL of thoroughly mixed Thalidomide-Re reagent and GST Eu antibody working solution. • 4.
The corresponding CRBN binding inhibition rate was calculated using the following method: […]
A general note: Time-resolved FRET reads energy transfer from a long-lived donor to a nearby acceptor.
Sequence of human Cereblon WT GST-tagged protein (Q96SW2 whole entry): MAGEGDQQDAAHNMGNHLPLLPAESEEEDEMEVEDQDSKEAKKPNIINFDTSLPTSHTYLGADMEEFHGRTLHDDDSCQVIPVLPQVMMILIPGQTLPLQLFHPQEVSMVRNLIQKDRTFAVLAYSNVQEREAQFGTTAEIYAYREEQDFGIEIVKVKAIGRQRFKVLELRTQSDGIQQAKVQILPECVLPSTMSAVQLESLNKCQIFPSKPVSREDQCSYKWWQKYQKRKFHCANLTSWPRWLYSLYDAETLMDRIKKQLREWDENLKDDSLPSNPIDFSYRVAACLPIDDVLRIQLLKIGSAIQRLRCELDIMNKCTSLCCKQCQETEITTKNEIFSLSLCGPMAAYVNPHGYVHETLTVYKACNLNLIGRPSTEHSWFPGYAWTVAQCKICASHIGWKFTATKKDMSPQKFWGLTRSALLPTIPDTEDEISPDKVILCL
Turning to `O=C1CCC(N2Cc3cc(CC4CCN(Cc5ccccc5-c5ccc(Cl)cc5)CC4)ccc3C2=O)C(=O)N1` (stereo not shown) [GT-03361, 3-(5-((1-((4′-chloro-[1,1′-biphenyl]-2-yl)methyl)piperidin-4-yl)methyl)-1-oxoisoindolin-2-yl)piperidine-2,6-dione], the IC50 (in general, the concentration needed to halve the response being measured) stood at 1590 nM.
As for `CC1(C)CCC(CN2CCC(Cc3ccc4c(c3)CN(C3CCC(=O)NC3=O)C4=O)CC2)=C(c2ccc(Cl)cc2)C1` (stereo not shown) [GT-03368, 3-(5-((1-((4′-chloro-5,5-dimethyl-3,4,5,6-tetrahydro-[1,1′-biphenyl]-2-yl)methyl)piperidin-4-yl)methyl)-1-oxoisoindolin-2-yl)piperidine-2,6-dione], the IC50 was 1380 nM.
The figure for `CC1(C)CCC(CN2CCC(Cc3ccc4c(c3)CN(C3CCC(=O)NC3=O)C4=O)CC2)=C(c2ccc(F)cc2)C1` (stereo not shown) [GT-03455, 3-(5-((1-((4′-fluoro-5,5-dimethyl-3,4,5,6-tetrahydro-[1,1′-biphenyl]-2-yl)methyl)piperidin-4-yl)methyl)-1-oxoisoindolin-2-yl)piperidine-2,6-dione] is 340 nM.
The result for `CC1(C)CCC(CN2CC3CC(C2)N3Cc2ccc3c(c2)CN(C2CCC(=O)NC2=O)C3=O)=C(c2ccc(Cl)cc2)C1` (stereo not shown) [GT-03492, 3-(5-((3-((4′-chloro-5,5-dimethyl-3,4,5,6-tetrahydro-[1,1′-biphenyl]-2-yl)methyl)-3,6-diazabicyclo[3.1.1]heptan-6-yl)methyl)-1-oxoisoindolin-2-yl)piperidine-2,6-dione] reads 520 nM; that for `O=C1CCC(N2Cc3cc(CN4CCN(Cc5ccccc5-c5ccc(Cl)cc5)CC4)cc(F)c3C2=O)C(=O)N1` (stereo not shown) [GT-03696, 3-(5-((4-((4′-chloro-[1,1′-biphenyl]-2-yl)methyl)piperazin-1-yl)methyl)-7-fluoro-1-oxoisoindolin-2-yl)piperidine-2,6-dione], 880 nM.
The result for `O=C1CCC(N2Cc3cc(NC4CCN(Cc5ccccc5-c5ccc(Cl)cc5)CC4)ccc3C2=O)C(=O)N1` (stereo not shown) [GT-03877, 3-(5-((1-((4′-chloro-[1,1′-biphenyl]-2-yl)methyl)piperidin-4-yl)amino)-1-oxoisoindolin-2-yl)piperidine-2,6-dione] reads 1400 nM; that for `O=C1CCC(N2Cc3cc(C(O)C4(O)CN(Cc5ccccc5-c5ccc(Cl)cc5)C4)ccc3C2=O)C(=O)N1` (stereo not shown) [GT-03880, 3-(5-((1-((4′-chloro-[1,1′-biphenyl]-2-yl)methyl)-3-hydroxyazetidin-3-yl)(hydroxy)methyl)-1-oxoisoindolin-2-yl)piperidine-2,6-dione], 230 nM.
For `CC1(C)CCC(CN2C[C@H]3C[C@@H]2CN3Cc2ccc3c(c2)CN(C2CCC(=O)NC2=O)C3=O)=C(c2ccc(Cl)cc2)C1` (stereo partly drawn) [GT-03887, 3-(5-(((1R,4R)-5-((4′-chloro-5,5-dimethyl-3,4,5,6-tetrahydro-[1,1′-biphenyl]-2-yl)methyl)-2,5-diazabicyclo[2.2.1]heptan-2-yl)methyl)-1-oxoisoindolin-2-yl)piperidine-2,6-dione], the IC50 stood at 190 nM.
`CC1(C)CCC(CN2C[C@H]3C[C@@H]2CN3Cc2ccc3c(c2F)CN(C2CCC(=O)NC2=O)C3=O)=C(c2ccc(Cl)cc2)C1` (stereo partly drawn) [GT-03888, 3-(5-(((1R,4R)-5-((4′-chloro-5,5-dimethyl-3,4,5,6-tetrahydro-[1,1′-biphenyl]-2-yl)methyl)-2,5-diazabicyclo[2.2.1]heptan-2-yl)methyl)-4-fluoro-1-oxoisoindolin-2-yl)piperidine-2,6-dione] came in with an IC50 of 240 nM.
With `CC1(C)CCC(CN2CC3CCC(C2)N3Cc2ccc3c(c2)CN(C2CCC(=O)NC2=O)C3=O)=C(c2ccc(Cl)cc2)C1` (stereo not shown) [GT-03889, 3-(5-((3-((4′-chloro-5,5-dimethyl-3,4,5,6-tetrahydro-[1,1′-biphenyl]-2-yl)methyl)-3,8-diazabicyclo[3.2.1]octan-8-yl)methyl)-1-oxoisoindolin-2-yl)piperidine-2,6-dione], the IC50 came out at 710 nM.
The result for `O=C1CCC(N2Cc3cc(CC4CN(Cc5ccccc5-c5ccc(Cl)cc5)C4)ccc3C2=O)C(=O)N1` (stereo not shown) [GT-03923, 3-(5-((1-((4′-chloro-[1,1′-biphenyl]-2-yl)methyl)azetidin-3-yl)methyl)-1-oxoisoindolin-2-yl)piperidine-2,6-dione] reads 170 nM.
The figure for `O=C1CCC(N2Cc3cc(CN4CCC(Nc5ccccc5-c5ccc(Cl)cc5)CC4)ccc3C2=O)C(=O)N1` (stereo not shown) [GT-03991, 3-(5-((4-((4′-chloro-[1,1′-biphenyl]-2-yl)amino)piperidin-1-yl)methyl)-1-oxoisoindolin-2-yl)piperidine-2,6-dione] is 470 nM.
The result for `CC1(C)CCC(CN2C3CC2CN(Cc2ccc4c(c2)CN(C2CCC(=O)NC2=O)C4=O)C3)=C(c2ccc(Cl)cc2)C1` (stereo not shown) [GT-03995, 3-(5-((6-((4′-chloro-5,5-dimethyl-3,4,5,6-tetrahydro-[1,1′-biphenyl]-2-yl)methyl)-3,6-diazabicyclo[3.1.1]heptan-3-yl)methyl)-1-oxoisoindolin-2-yl)piperidine-2,6-dione] reads 630 nM; that for `CC1(C)CCC(CN2C3CCC2CN(Cc2ccc4c(c2)CN(C2CCC(=O)NC2=O)C4=O)C3)=C(c2ccc(Cl)cc2)C1` (stereo not shown) [GT-03996, 3-(5-((8-((4′-chloro-5,5-dimethyl-3,4,5,6-tetrahydro-[1,1′-biphenyl]-2-yl)methyl)-3,8-diazabicyclo[3.2.1]octan-3-yl)methyl)-1-oxoisoindolin-2-yl)piperidine-2,6-dione], 1440 nM.
`O=C1CCC(N2Cc3cc(CN4C5CC4CN(C(=O)C4=C(c6ccc(F)cc6)CCCC4)C5)ccc3C2=O)C(=O)N1` (stereo not shown) [GT-04169, 3-(5-((3-(4′-fluoro-3,4,5,6-tetrahydro-[1,1′-biphenyl]-2-carbonyl)-3,6-diazabicyclo[3.1.1]heptan-6-yl)methyl)-1-oxoisoindolin-2-yl)piperidine-2,6-dione] gave an IC50 of 850 nM.
The result for `O=C1CCC(N2Cc3cc(CN4CCN(C(=O)C5=C(c6ccc(F)cc6)CCCC5)CC4)ccc3C2=O)C(=O)N1` (stereo not shown) [GT-04170, 3-(5-((4-(4′-fluoro-3,4,5,6-tetrahydro-[1,1′-biphenyl]-2-carbonyl)piperazin-1-yl)methyl)-1-oxoisoindolin-2-yl)piperidine-2,6-dione] reads 1010 nM.
The figure for `O=C1CCC(N2Cc3cc(NC4CN(Cc5ccccc5-c5ccc(Cl)cc5)C4)c(F)cc3C2=O)C(=O)N1` (stereo not shown) [GT-04204, 3-(5-((1-((4′-chloro-[1,1′-biphenyl]-2-yl)methyl)azetidin-3-yl)amino)-6-fluoro-1-oxoisoindolin-2-yl)piperidine-2,6-dione] is 520 nM; for `O=C1CCC(N2Cc3cc(CN4CCN(C(=O)c5ccncc5-c5ccc(Cl)cc5)CC4)ccc3C2=O)C(=O)N1` (stereo not shown) [GT-04222, 3-(5-((4-(3-(4-chlorophenyl)isonicotinoyl)piperazin-1-yl)methyl)-1-oxoisoindolin-2-yl)piperidine-2,6-dione] it is 560 nM; for `CC1(C)CCC(C(=O)N2CCN(Cc3ccc4c(c3)CN(C3CCC(=O)NC3=O)C4=O)CC2)=C(c2ccc(Cl)cc2)C1` (stereo not shown) [GT-04224, 3-(5-((4-(4′-chloro-5,5-dimethyl-3,4,5,6-tetrahydro-[1,1′-biphenyl]-2-carbonyl)piperazin-1-yl)methyl)-1-oxoisoindolin-2-yl)piperidine-2,6-dione] it is 430 nM.
The figure for `O=C1CCC(N2Cc3cc(NC4CN(C(=O)c5ccccc5-c5ccc(Cl)cc5)C4)ccc3C2=O)C(=O)N1` (stereo not shown) [GT-04397, 3-(5-((1-(4′-chloro-[1,1′-biphenyl]-2-carbonyl)azetidin-3-yl)amino)-1-oxoisoindolin-2-yl)piperidine-2,6-dione] is 200 nM.
`O=C1CCC(N2Cc3c(CN4CCC(Nc5ccccc5-c5ccc(Cl)cc5)CC4)cccc3C2=O)C(=O)N1` (stereo not shown) [GT-04947, 3-(4-((4-((4′-chloro-[1,1′-biphenyl]-2-yl)amino)piperidin-1-yl)methyl)-1-oxoisoindolin-2-yl)piperidine-2,6-dione] returned an IC50 of 390 nM.
The compound `CC1(C)CCC(C(=O)N2CCN(Cc3ccc(-c4ccc5c(c4)CN(C4CCC(=O)NC4=O)C5=O)cc3)CC2)=C(c2ccc(Cl)cc2)C1` (stereo not shown) [GT-05359, 3-(5-(4-((4-(4′-chloro-5,5-dimethyl-3,4,5,6-tetrahydro-[1,1′-biphenyl]-2-carbonyl)piperazin-1-yl)methyl)phenyl)-1-oxoisoindolin-2-yl)piperidine-2,6-dione] yielded an IC50 of 970 nM.
The figure for `CC1(C)CCC(CN2CCN(CCc3ccc4c(c3)CN(C3CCC(=O)NC3=O)C4=O)CC2)=C(c2ccc(Cl)cc2)C1` (stereo not shown) [GT-05361, 3-(5-(2-(4-((4′-chloro-5,5-dimethyl-3,4,5,6-tetrahydro-[1,1′-biphenyl]-2-yl)methyl)piperazin-1-yl)ethyl)-1-oxoisoindolin-2-yl)piperidine-2,6-dione] is 370 nM.
The result for `CC1(C)CCC(CN2CCN(CCCc3ccc4c(c3)CN(C3CCC(=O)NC3=O)C4=O)CC2)=C(c2ccc(Cl)cc2)C1` (stereo not shown) [GT-05362, 3-(5-(3-(4-((4′-chloro-5,5-dimethyl-3,4,5,6-tetrahydro-[1,1′-biphenyl]-2-yl)methyl)piperazin-1-yl)propyl)-1-oxoisoindolin-2-yl)piperidine-2,6-dione] reads 1260 nM; that for `CC1(C)CCC(CN2CCN(C(=O)c3ccc4c(c3)C(=O)N(C3CCC(=O)NC3=O)C4=O)CC2)=C(c2ccc(Cl)cc2)C1` (stereo not shown) [GT-05366, 5-(4-((4′-chloro-5,5-dimethyl-3,4,5,6-tetrahydro-[1,1′-biphenyl]-2-yl)methyl)piperazine-1-carbonyl)-2-(2,6-dioxopiperidin-3-yl)isoindoline-1,3-dione], 1440 nM.
